# Data from patent US20100004342A1, “LFA-1 Inhibitors and Use Thereof” (priority 2003, published 2010).
# “Also recorded” adds a separate entry of the source. Where two headings read alike, the source gives them in different places.
# Tests used:
# [1] = system: vascular endothelial cell; conditions: cited from earlier work
# [2] = biological target: LFA-1 and ICAM-1 (Homo sapiens, UniProt P20701); conditions: cited from earlier work
# [3] = system: CD11a; assay: Detection of cell membrane differentiation antigen CD11a of human peripheral blood monocyte (FACS); assay type: cell-based; conditions: for number of the cell expressing CD11a on the cell surface / rate to the total cells of the cells with expression of CD11a or CD18: peripheral blood monocytes cultured with polyamine
# Source text: (§1) Human peripheral blood was collected, and peripheral blood monocytes including lymphocyte, monocyte and the like were recovered from the collected blood by specific gravity centrifugation technique using SEPARATE-L (Muto Pure Chemicals Co. LTD., Tokyo, Japan). Next, the recovered peripheral blood monocytes were suspended in PRMI1640 culture medium (Sigma chemical co., St. Louis, USA) mixed with 10% human serum (Wako Pure Chemical Industries LTD., Osaka, Japan), 0.1% L-glutamine (Invitrogen Corp., CA, USA), and 0.01% penicillin-streptomycin (Invitrogen Corp., CA, USA) and cultured in the humidified air at 37° C. containing 5% carbonic acid gas. […] Following culture for a given time, the peripheral blood monocytes were recovered from the culture medium and used in Examples 2, 4, 5, and 6.
# For confirming that obtained experimental results were not derived from changes produced by the polyamines present in the culture medium and kept in contact with the cells for a long time, different peripheral blood monocytes were prepared.
# (§2) The peripheral blood monocytes cultured for 16 to 80 hours by the method of Example 1 were collected from the cell culture plate so as not to damage the cells. The collected cells were washed with PBS (−) solution and then fixed using phosphate buffered saline without calcium chloride and without magnesium chloride (hereinafter, referred to as PBS (−); Invitrogen Corporation, GIBCO, Grand Island, N.Y., USA) containing 2% paraformaldehyde (Wako Pure Chemical Industries LTD, Osaka, Japan), so as not to achieve change in cell membrane antigen molecules on the cell surface of the peripheral blood monocytes. The peripheral blood monocytes were further washed, to which antibodies to the cell membrane antigen molecules were then added in an amount corresponding to 5 μL (microliter) per 500000 cells. The antibodies used here are CD2 (FITC label), CD4 (FITC), CD8 (PE label), CD11a (FITC), CD11b (PE), CD11c (PE), CD18 (FITC), CD31 (PE), CD49d (PE), CD49e (PE), CD54 (PE), CD62L (PE), CD95 (FITC), and VIA-PROBE (FITC). All of these antibodies are manufactured by PharMingen (A Becton Dickinson Company, San Jose, Calif., USA).
# (§3) After each antibody was added to the cells and reacted in the dark for 20 minutes, positive rate and light intensity of the cell membrane differentiation antigen expressed in the cultured peripheral blood were measured with FACS analyzer (FACSCalibur; manufactured by Becton Dickinson) (Becton Dickinson Japan, Tokyo). The population of the peripheral blood monocytes was of interest in the measurement of florescence of the cell surface, and the measurement of all of the cultured cells was also conducted at the same time. Further, a negative control was used, and a measurement gate was set to obtain each antibody positive rate of the cells within the gate and average fluorescence intensity of the positive cells.
# [4] = system: peripheral blood monocytes; assay: Peripheral blood monocyte adhesion to culture plate (MTT); assay type: cell-based, human; conditions: for number of the cells adhering on the plate surface: cultured with varying concentrations of polyamines for 70 to 80 hours; for inhibition effect on cell adhesion to the cell culture plate: culture for approximately 16 to 24 hours
# Description: Peripheral blood monocytes were cultured on a 96-well cell culture plate using the culture medium described above. […] Following the culture, the cell culture plate was washed three times with PBS (−) solution to remove the cells floating in the culture medium. As a result, there remained only the cells adhering on the inside bottom of the cell culture plate. […] The culture supernatant was removed. As a result, there remained only the cells firmly adhering on the inside bottom of the cell culture plate, as described above. […] Thiazolyl blue (MTT) (C18H16N5SBr) (Sigma. St. Louis, USA) was added in the final concentration of 0.35 mg/mL, and the cells were cultured at 37° C. for 2 to 4 hours until the cells were stained. MTT is taken up into cells, and the dye is discolored only in live cells. Therefore, the amount of the live cells existing can be confirmed from the amount of the dye. This means that the larger the amount of the dye is, the higher the number of the cells and the cell activity are. After the cells were sufficiently stained with MTT, the culture supernatant was removed by aspiration. The cells were dissolved by addition of 100 μl of cell lysis solution (2-propanol (isopropanol; Wako Pure Chemical Industries LTD, Osaka, Japan) mixed with 12 M (mol/L) hydrochloric acid (HCl; Wako Pure Chemical Industries LTD, Osaka, Japan)), to recover the dye in the cells. Absorbance in the cell culture plate was measured at 2 absorbance wavelengths of 570 nm and 690 nm using an absorbance reader (Titertek Multiskan MCC/340, Labsystems, Flow Laboratories Inc., USA).
# [5] = system: vascular endothelial cells; assay: Peripheral blood monocyte adhesion to vascular endothelial cell (BCECF-AM); assay type: cell-based, human; conditions: for number of the cells adhering to the vascular endothelial cells: cultured with 100 or 500 μM polyamine for 72 to 80 hours, compared with culture without
# [6] = system: CD18; assay: Detection of cell membrane differentiation antigen CD18 of human peripheral blood monocyte (FACS); assay type: cell-based; conditions: peripheral blood monocytes cultured with polyamine
# Source text: as §1, with “6. […]” for “6.”
# as §3, with “The population of the peripheral blood monocytes was of interest in the measurement of florescence of the cell surface, and the measurement of all of the cultured cells was also conducted at the same time.” left out
# [7] = system: adhesion molecules (CD11b, CD11c, CD31, CD49d, CD49e, CD54, and CD62L); assay: Detection of adhesion molecules except CD11a and CD18 on human peripheral blood monocyte (FACS); assay type: cell-based; conditions: for average fluorescence intensity of adhesion molecules (CD11b, CD11c, CD31, CD49d, CD49e, CD54, and CD62L) except CD11a and CD18: peripheral blood monocytes cultured with polyamine
# Source text: as §1, §2, §3
# [8] = system: peripheral blood monocytes; conditions: for cellular cytotoxicity: peripheral blood monocytes, VIA-Probe
# Source text: as §1, §2, §3
# [9] = system: peripheral blood monocytes; assay: Number and activity of the total cultured cells (MTT), cytotoxicity check; assay type: cell-based, human; conditions: for cellular cytotoxicity to the peripheral blood monocytes: high concentrations (up to 1 mM); for amount of the MTT dye taken up into the cells (total cultured cells): total cells in the plate, varying polyamine concentration
# Description: Then, the culture supernatant in the plate was removed with the utmost caution not to soak up the cells adhering on the inside bottom of the plate. This means that all the cells present in the cell culture plate exist on the inside bottom of the plate. […] Absorbance of the cell culture medium was measured at 2 absorbance wavelengths of 570 nm and 690 nm using an absorbance reader (Titertek Multiskan MCC/340, Labsystems, Flow Laboratories Inc., USA). As a result, each polyamine concentration and the total amount of live cells of the cultured peripheral blood monocytes can be confirmed.
# [10] = system: peripheral blood monocytes; assay: Blastogenesis of peripheral blood monocytes by Con-A or PHA (3H-thymidine); assay type: cell-based, human; conditions: cultured with 100 μM polyamine for approximately 12 to 18 hours
# Description: Following the culture, the cells were washed three times with PBS (−) to remove extracellular polyamines, The washed peripheral blood monocytes were cultured for 64 hours in culture medium (RPMI1640 containing 10% fetal bovine serum) mixed with PHA (Difco Laboratories, Detroit, Mich., USA) or Con-A (Sigma chemical co., St. Louis, USA). Then, ^3H-thymidine (Amersham) was added to the cells, followed by additional culture for 8 hours. Following the culture, the peripheral blood monocytes were recovered, and radioactivity of the cells was measured (liquid scintillation counter, LKB-1205, LKB). Since the peripheral blood monocytes activated by mitogen (PHA, Con-A, or the like) cause blast transformation, the cells take up ^3H-thymidine therein. Accordingly, function of cell activation can be measured by measuring the amount of intracellular ^3H-thymidine.
# [11] = system: rats; conditions: cited from earlier work
# [12] = system: rats; conditions: cited from earlier work; remark: listed apart in the source
# [13] = system: functional cell membrane differentiation antigen except adhesion molecules
# Source text: as §1, §2, §3
# [14] = system: CD16, CD31, CD49d, and CD54; conditions: peripheral blood monocyte accidentally infected; cultured with spermine
# Description: as §2, with “The antibodies used here are CD2 (FITC label), CD4 (FITC), CD8 (PE label), CD11a (FITC), CD11b (PE), CD11c (PE), CD18 (FITC), CD31 (PE), CD49d (PE), CD49e (PE), CD54 (PE), CD62L (PE), CD95 (FITC), and VIA-PROBE (FITC). All of these antibodies are manufactured by PharMingen (A Becton Dickinson Company, San Jose, Calif., USA).” left out
# as §3, with “The population of the peripheral blood monocytes was of interest in the measurement of florescence of the cell surface, and the measurement of all of the cultured cells was also conducted at the same time.” left out
# [15] = system: Daudi cells (Burkitt lymphoma cells); conditions: cultured overnight with 100 μM spermine, then IL-2 for 72 hours
# [16] = system: intestinal mucosa; conditions: contained in meal; cited from earlier work
# [17] = system: psoriasis; conditions: clinical examples, human; cited from earlier work
# [18] = peripheral blood monocytes cultured with polyamine (0, 100, 500 μM) for 70 to 80 hours
# LFA-1 and ICAM-1, sequence (P20701 26-1170): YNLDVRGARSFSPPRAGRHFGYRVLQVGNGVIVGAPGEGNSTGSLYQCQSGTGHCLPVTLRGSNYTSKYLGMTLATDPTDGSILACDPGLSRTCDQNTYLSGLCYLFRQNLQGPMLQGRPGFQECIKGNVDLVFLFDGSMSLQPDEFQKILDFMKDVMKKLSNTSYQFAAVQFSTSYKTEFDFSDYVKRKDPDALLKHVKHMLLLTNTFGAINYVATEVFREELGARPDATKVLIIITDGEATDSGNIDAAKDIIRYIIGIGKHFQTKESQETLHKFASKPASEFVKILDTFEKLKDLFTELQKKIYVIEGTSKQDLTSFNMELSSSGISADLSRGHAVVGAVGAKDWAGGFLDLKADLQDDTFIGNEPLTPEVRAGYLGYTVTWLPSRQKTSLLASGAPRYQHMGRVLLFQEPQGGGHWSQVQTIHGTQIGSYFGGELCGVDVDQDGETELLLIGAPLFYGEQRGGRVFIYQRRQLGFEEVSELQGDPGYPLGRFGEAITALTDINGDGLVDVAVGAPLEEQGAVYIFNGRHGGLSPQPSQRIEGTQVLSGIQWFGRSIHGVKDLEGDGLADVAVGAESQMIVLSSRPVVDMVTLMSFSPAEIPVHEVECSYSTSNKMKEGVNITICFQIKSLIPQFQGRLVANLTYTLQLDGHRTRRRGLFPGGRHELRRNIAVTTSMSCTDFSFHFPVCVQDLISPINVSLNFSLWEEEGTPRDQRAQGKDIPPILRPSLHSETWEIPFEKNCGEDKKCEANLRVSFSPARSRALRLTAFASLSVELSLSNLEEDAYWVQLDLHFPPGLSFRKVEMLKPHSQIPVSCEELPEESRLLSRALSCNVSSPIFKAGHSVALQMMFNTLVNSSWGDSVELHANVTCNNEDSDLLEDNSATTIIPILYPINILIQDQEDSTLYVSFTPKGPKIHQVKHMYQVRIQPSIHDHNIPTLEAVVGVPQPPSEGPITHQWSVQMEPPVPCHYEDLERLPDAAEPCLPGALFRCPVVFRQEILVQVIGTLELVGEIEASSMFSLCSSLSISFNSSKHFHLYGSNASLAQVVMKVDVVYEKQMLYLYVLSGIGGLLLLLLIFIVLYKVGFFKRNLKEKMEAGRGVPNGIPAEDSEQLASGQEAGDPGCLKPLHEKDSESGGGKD
# LFA-1 and ICAM-1, sequence (P05107 23-769 partner): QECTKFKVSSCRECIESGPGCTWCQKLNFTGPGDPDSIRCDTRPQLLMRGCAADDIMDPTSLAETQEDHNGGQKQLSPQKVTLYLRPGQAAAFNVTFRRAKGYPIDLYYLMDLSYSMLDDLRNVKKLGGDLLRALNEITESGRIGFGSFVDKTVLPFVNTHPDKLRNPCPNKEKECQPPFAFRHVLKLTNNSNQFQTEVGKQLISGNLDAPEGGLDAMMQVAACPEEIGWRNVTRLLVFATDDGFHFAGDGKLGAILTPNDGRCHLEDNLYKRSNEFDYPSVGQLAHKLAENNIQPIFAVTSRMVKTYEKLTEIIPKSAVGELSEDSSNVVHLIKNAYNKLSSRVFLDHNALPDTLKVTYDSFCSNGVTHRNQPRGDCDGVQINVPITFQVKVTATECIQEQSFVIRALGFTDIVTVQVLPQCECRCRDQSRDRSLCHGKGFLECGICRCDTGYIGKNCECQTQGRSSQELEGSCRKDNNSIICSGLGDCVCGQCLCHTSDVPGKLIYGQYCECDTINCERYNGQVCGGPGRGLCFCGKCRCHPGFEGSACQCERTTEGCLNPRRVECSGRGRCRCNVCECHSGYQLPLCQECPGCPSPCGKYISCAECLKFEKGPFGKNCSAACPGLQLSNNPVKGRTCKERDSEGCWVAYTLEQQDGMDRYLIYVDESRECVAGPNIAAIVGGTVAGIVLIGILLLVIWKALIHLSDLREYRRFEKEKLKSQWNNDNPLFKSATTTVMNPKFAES
Compound,"average fluorescence intensity of CD11a [3, 18]",number of the cells adhering on the plate surface [4],number of the cells adhering to the vascular endothelial cells [5],number of the cell expressing CD11a on the cell surface [3],rate to the total cells of the cells with expression of CD11a or CD18 [3],average fluorescence intensity of CD18 [6],"average fluorescence intensity of adhesion molecules (CD11b, CD11c, CD31, CD49d, CD49e, CD54, and CD62L) except CD11a and CD18 [7]",cellular cytotoxicity [8],inhibition effect on cell adhesion to the cell culture plate [4],cellular cytotoxicity to the peripheral blood monocytes [9],amount of the MTT dye taken up into the cells (total cultured cells) [9],blastogenesis by Con-A or PHA [10],other results
CC(C)c1c(C(=O)Nc2ccccc2)c(-c2ccccc2)c(-c2ccc(F)cc2)n1CC[C@@H](O)C[C@@H](O)CC(=O)O [atorvastatin],–,–,–,–,–,–,–,–,–,–,–,–,monocyte adhesion to vascular endothelial cell [1]: inhibits monocyte adhesion to vascular endothelial cell
CC[C@H](C)C(=O)O[C@H]1C[C@@H](C)C=C2C=C[C@H](C)[C@H](CC[C@@H]3C[C@@H](O)CC(=O)O3)[C@H]21 [lovastatin],–,–,–,–,–,–,–,–,–,–,–,–,adhesion between LFA-1 and ICAM-1 [2]: blocks adhesion between LFA-1 and ICAM-1
"Cl.Cl.NCCCCN [putrescine, 1,4-Butanediamine dihydrochloride, reference compound]",not evident,not inhibited,not inhibited,–,–,–,–,–,–,–,–,–,–
"NCCCCNCCCN [spermidine, N-aminobutyl-1,3-diaminopropane]",inhibited dependently on spermidine concentration,decreased with increase of spermine and spermidine concentrations,–,increased,not decreased,decreased,not decreased,no cellular cytotoxicity,not exhibited,no cellular cytotoxicity,no reduction,rather enhanced,"50% lethal dose (LD50) ([11]; rats, acute toxicity test): 600 mg/kg of body weight; amount up to which no side effect is observed ([12]; subacute toxicity test, administration for 6 weeks): up to 83 mg/kg of body weight/day"
"NCCCNCCCCNCCCN [spermine, 4,9-diazadodecane-1,12-diamine]",reduced as spermine concentration was increased; also recorded: strongest,decreased with increase of spermine and spermidine concentrations,low,increased,not decreased,decreased with increase of spermine concentration,not decreased,no cellular cytotoxicity,not exhibited,no cellular cytotoxicity,no change,rather enhanced,"average fluorescence intensity of CD11a (decreasing effect) ([3]; cells cultured for 20 to 26 hours): not observed; number of the cells having strong fluorescent intensity (CD11a histogram) ([3]; cells supplemented with spermine): decreased; average fluorescence intensity of CD11a ([3]; cultured with spermine 16 to 24 hours, washed, then cultured without spermine 48 to 56 hours): decrease of the average fluorescence intensity of CD11a; expression rate of adhesion molecules (expression positive rate) ([7]; cells cultured with spermine): not decreased; average fluorescence intensity of CD62L ([7]; peripheral blood monocytes cultured with spermine): obviously increased dependently on spermine concentration; average fluorescence intensity of cell membrane differentiation antigens other than the adhesion molecules ([13]; FIG. 8, cells cultured with spermine): no decrease; expression rate of cell membrane differentiation antigen except adhesion molecules (expression positive rate) ([13]; cells cultured with spermine): not decreased; dead cells (VIA-Probe) ([8]; spermine concentration that most strongly decreased CD11a and CD18 fluorescence): not increased; expression of cell membrane differentiation antigen such as CD16, 31, 49d, and 54 (average fluorescence intensity) [14]: markedly decreased; inhibition of cell adhesion to the inside bottom of the culture plate ([4]; plate inverted and centrifuged (500 rpm, 5 minutes) after 70 to 82 hours culture): more remarkable result of the inhibition; number of the adhering cells (vascular endothelial cells) ([5]; culture with 500 μM spermine for 20 hours): not decreased; cellular cytotoxicity (LAK activity) of the peripheral blood monocytes [15]: reduced; concentration in meal at which it has toxicity [16]: ≥ 0.2%; 50% lethal dose (LD50) ([11]; rat, in vivo): 600 mg/kg of body weight; amount up to which no side effect is observed ([12]; rat, in vivo): up to 19 mg/kg of body weight/day"
efalizumab: a CD11a antibody,–,–,–,–,–,–,–,–,–,–,–,–,psoriasis symptoms [17]: improved
